From patent US12428398B2, “2-(2,4,5-substituted phenylamino) pyrimidine derivative and crystalline form B thereof” (Henan Genuine Biotech Co., Ltd., priority 2019, dated 2025)

How the values were obtained:
[1] = Pharmacokinetics of Dositinib and AZD9291 in rats; conditions: for T1/2: parent drug; for AUC0-last / Cmax: parent drug in plasma; for Cmax: intragastric 12 mg/kg per FIGS. 2-5
Text: Preparation of Test Solution
2) Preparation of Orally Administered Preparations • a) Weigh an appropriate amount of compound powders into a container; • b) Add an appropriate volume of 0.5% HPMC (hydroxypropyl methylcellulose, 4000 CP) aqueous solution to the container, and continuously stir or whirl until a uniform solution was obtained; • c) Add the remaining volume of 0.5% HPMC (hydroxypropyl methylcellulose, 4000 CP) aqueous solution to the container to a final volume, and continuously stir or whirl until the solution was uniform.
The preparation for intragastric administration was prepared the day before administration and analyzed. When the preparation was not in use, it was stored in a refrigerator at 2° C. to 8° C. and used within 8 days.
Animal: Rats (SD) from Beijing Vital River Laboratory Animal Technology Co., Ltd. 36 rats (18 males and 18 females), 6-10 weeks old, 200-300 g (males); 170-280 g (female). […] The animals in the sixth group were administered with AZD9291 (mesylate) solution by gavage, with a dose volume of 10 mL/kg. The blood samples were taken at the following time points after administration to measure the blood drug concentrations: 0.083, 0.25, 0.5, 1, 2, 4, 6, 8, 12 and 24 hours.
Administration: Whole blood samples were collected through jugular vein puncture (or other appropriate blood collection sites) at the specified time (about 0.15 mL in the fifth group and 0.23 mL in other groups), with wet ice operation throughout the whole process, and the actual blood collection time was recorded in the experimental records. The acceptable error of collection time point was ±1 minute within 1 hour of administration, and ±5% of theoretical time for other time points. The blood samples were immediately transferred to labeled commercial tubes containing K2-EDTA and then centrifuged (3,000 g, 4° C., 15 min) for plasma collection.
Retention time, chromatogram collection and chromatogram integration of compounds and internal standards were processed by Software Analyst (Applied Biosystems), and data statistics were processed by software Watson LIMS (Thermo Fisher Scientific) or Analyst (Applied Biosystems). The unit of the analyte concentration in the sample was nM, three significant figures were reserved, and all values expressed in percentage (such as % deviation and % coefficient of variation, etc.) were reserved to one decimal place.
Data analysis and reporting: WinNonlin™ Version 6.3 (Pharsight, Mountain View, CA) or above pharmacokinetic software for non-atrioventricular models was used to process the blood drug concentration, and the linear logarithm trapezoid method was used to calculate the pharmacokinetic parameters.

[2] = tested on: Human non-small cell lung cancer HCC827 cell subcutaneous xenograft; conditions: HCC-827 nude mouse model, PO QD
Experimental: Example 5 In Vivo Pharmacodynamics of Crystalline Form B of Dositinib and AZD9291 on Human Non-Small Cell Lung Cancer HCC827 Cell Subcutaneous Xenograft BALB/C Nude Mouse Model
Human non-small cell lung cancer HCC827 (ATCC-CRL-2868) was monolayer cultured in vitro. The culture conditions were: RPMI-1640 medium with 10% fetal bovine serum, 100 U/mL penicillin and 100 g/mL streptomycin, in a 5% CO2 incubator at 37° C. Trypsin EDTA was used for routine digestion twice a week. When the cell saturation was 80%-90% and the number reached the requirements, the cells were collected, counted and transplanted.
Animals: BALB/c nude mouse, female, 6-8 weeks old, weight 18-22 g. […]
Experimental index: to investigate whether the tumor growth is inhibited, delayed or cured. The tumor diameter was measured with a vernier caliper twice a week. […]
The antitumor effect of the compound was evaluated by tumor growth inhibition value (TGI) (%) or relative tumor proliferation rate T/C (%). […]
Relative tumor proliferation rate T/C (%): the calculation is as follows: T/C %=TRTV/CRTV×100% (TRTV: treatment group RTV; CRTV: negative control group RTV). The relative tumor volume (RTV) is calculated according to the results of tumor measurement. […]
At the end of the experiment, the tumor weight is measured and the percentage of Tweight/Cweight is calculated. […]

wild EGFR = wild EGFR (Homo sapiens, UniProt P00533); conditions: J. Med. Chem. 2014; cited from earlier work
Chain of wild EGFR (P00533 25-1210): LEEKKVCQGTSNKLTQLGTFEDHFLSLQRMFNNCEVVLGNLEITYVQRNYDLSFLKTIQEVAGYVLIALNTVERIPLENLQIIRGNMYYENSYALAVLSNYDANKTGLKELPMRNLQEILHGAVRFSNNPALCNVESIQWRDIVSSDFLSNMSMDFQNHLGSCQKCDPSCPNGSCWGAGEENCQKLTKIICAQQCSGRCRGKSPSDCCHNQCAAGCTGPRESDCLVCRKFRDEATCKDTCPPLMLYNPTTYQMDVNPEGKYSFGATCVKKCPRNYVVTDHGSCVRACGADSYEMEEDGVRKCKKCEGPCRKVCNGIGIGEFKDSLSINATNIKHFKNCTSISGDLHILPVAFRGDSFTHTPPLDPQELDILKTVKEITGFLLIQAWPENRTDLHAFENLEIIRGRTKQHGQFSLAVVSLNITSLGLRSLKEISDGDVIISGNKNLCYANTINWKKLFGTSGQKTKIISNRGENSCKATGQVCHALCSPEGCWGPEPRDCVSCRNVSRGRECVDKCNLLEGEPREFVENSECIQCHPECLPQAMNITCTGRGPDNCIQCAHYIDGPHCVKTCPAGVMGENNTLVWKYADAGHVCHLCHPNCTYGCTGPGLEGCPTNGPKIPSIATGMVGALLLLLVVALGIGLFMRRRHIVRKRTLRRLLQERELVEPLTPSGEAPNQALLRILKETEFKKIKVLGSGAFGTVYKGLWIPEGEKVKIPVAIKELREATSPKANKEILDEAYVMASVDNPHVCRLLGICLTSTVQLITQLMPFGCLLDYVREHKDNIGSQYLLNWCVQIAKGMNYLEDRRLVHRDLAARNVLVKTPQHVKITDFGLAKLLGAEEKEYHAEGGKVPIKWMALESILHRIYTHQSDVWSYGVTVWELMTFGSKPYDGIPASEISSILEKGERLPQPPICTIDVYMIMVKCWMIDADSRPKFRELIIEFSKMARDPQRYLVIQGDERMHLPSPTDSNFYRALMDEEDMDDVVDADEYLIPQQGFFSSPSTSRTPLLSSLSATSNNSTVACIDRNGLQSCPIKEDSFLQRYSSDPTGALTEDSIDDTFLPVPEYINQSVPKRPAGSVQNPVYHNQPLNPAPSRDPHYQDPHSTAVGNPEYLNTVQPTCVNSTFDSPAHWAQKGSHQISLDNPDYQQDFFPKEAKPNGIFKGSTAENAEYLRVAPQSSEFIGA

SMILES: CS(=O)(=O)O.[2H]C([2H])=CC(=O)Nc1cc(Nc2nccc(-c3cn(C([2H])([2H])[2H])c4ccccc34)n2)c(OC)cc1N(C)CCN(C)C [Dositinib (crystalline form A + B), N-(2-(((2-(Dimethylamino)ethyl)) (methyl)amino)-4-methoxy-5-((4-(d3-1-methyl-1H-indol-3-yl)pyrimidin-2-yl)amino)phenyl) d2-acrylamide-mesylate]
- T1/2 ([1]; female rats): 6.77 h
- AUC0-last ([1]; female rats): 2650 ng·h/mL
- Cmax ([1]; female rats): 205 ng/mL
- T1/2 ([1]; male rats): 3.70 h
- AUC0-last ([1]; male rats): 915 ng·h/mL
- Cmax ([1]; male rats): 110 ng/mL

SMILES: C=CC(=O)Nc1cc(Nc2nccc(-c3cn(C)c4ccccc34)n2)c(OC)cc1N(C)CCN(C)C [AZD9291 (crystalline form A + B), Osimertinib, reference compound]
- T1/2 ([1]; female rats): 5.59 h
- AUC0-last ([1]; female rats): 2592 ng·h/mL
- Cmax ([1]; female rats): 207 ng/mL
- T1/2 ([1]; male rats): 3.40 h
- AUC0-last ([1]; male rats): 907 ng·h/mL
- Cmax ([1]; male rats): 106 ng/mL

SMILES: CS(=O)(=O)O.[2H]C([2H])=CC(=O)Nc1cc(Nc2nccc(-c3cn(C([2H])([2H])[2H])c4ccccc34)n2)c(OC)cc1N(C)CCN(C)C [Dositinib (crystalline form B), N-(2-(((2-(Dimethylamino)ethyl)) (methyl)amino)-4-methoxy-5-((4-(d3-1-methyl-1H-indol-3-yl)pyrimidin-2-yl)amino)phenyl) d2-acrylamide-mesylate]
- anticancer activity relative to AZD9291 (Osimertinib, mixture of crystalline forms A and B) [2]: twice
- anticancer activity of 0.5 mg/kg compared with 1 mg/kg of AZD9291 ([2]; 0.5 mg/kg): equivalent
- T1/2 ([1]; female rats): 6.85 h
- AUC0-last ([1]; female rats): 3105 ng·h/mL
- Cmax ([1]; female rats): 208 ng/mL
- T1/2 ([1]; male rats): 3.87 h
- AUC0-last ([1]; male rats): 1100 ng·h/mL
- Cmax ([1]; male rats): 115 ng/mL

SMILES: C=CC(=O)Nc1cc(Nc2nccc(-c3c[nH]c4ccccc34)n2)c(OC)cc1N(C)CCN(C)C [AZ5104]
- inhibitory activity on wild EGFR, times stronger than that of Osimertinib (wild EGFR): 14.5 times
